The values below come from patent publication US7063946B2, “Methods, reagents, kits and apparatus for protein function analysis” (Meso Scale Technologies, LLC., priority 2001, dated 2006).

For assay [1], the target named is T1, IkBa peptide [SEQ ID No. 1] (Homo sapiens, UniProt P25963).
T1 construct: two phosphoserines in the DSGLDS motif (chemical modification); purchased New England Peptide, Fitchburg Mass; host or cells: chemical synthesis
As to the kind of experiment: Phosphopeptide binding assay, peptide-BSA coated IPR plate. From the text: (§1) A phosphopeptide derived from the IkBa degradation motif (SEQ ID NO: 1) and a phosphopeptide derived from c-Myc (SEQ ID NO: 4) were chemically synthesized (New England Peptide, Fitchburg Mass.) with the following sequences respectively:
A maleimide pre-activated BSA (Pierce, Pittsburgh Pa.), which contains estimated 17 active maleimide groups on the protein surface, was used as the protein carrier, and was supplied as a lyophilized preparation. Coupling of the IkBa peptide (SEQ ID NO: 1) to the pre-activated BSA was carried out with 2 mg BSA (30 nmol) and 17 equivalents of the 25 residue phosphopeptide in 400 μl PBS. The reaction was terminated with 2 mM […] after incubation at room temperature for 30 minutes. The peptide:BSA conjugate was then purified on PD-10 gel filtration column to remove uncoupled peptide and analyzed with SDS PAGE to monitor the coupling reaction. […] After coupling and purification, the column fractions containing the peptide:BSA conjugates were pooled and the protein concentration of the pooled samples was determined by BCA assay (Pierce, Pittsburgh Pa.). NaN3, (0.02%) was added to the final peptide:BSA conjugate sample for long term storage at 4° C. […]
Two βTRCP genes, βTRCP1 and βTRCP2, are present in the human genome on chromosome 5 and 10, respectively. […] The ECL signals were measured using an imaging plate reader (IPR).

In assay [2] the target is T2, c-Myc peptide [SEQ ID No. 4] (Homo sapiens, UniProt P01106).
T2 construct: phosphothreonine (T58) and phosphoserine (S62) (chemical modification); purchased New England Peptide, Fitchburg Mass; host or cells: chemical synthesis
Described as above. The protocol: as §1
To prepare IPR plates for use in the assay, approximately 2.4 pmol BSA, 1.2 pmole IκBα-24pp peptide-BSA conjugate or 1.2 pmole of Myc-p58Tp62S peptide-BSA conjugate in 2.5 μl were deposited on the carbon working electrode surface in a single well of a 96-well plate. At this stage, the plates were dried then used or stored under desiccated condition. A few hours prior to usage, the plates were rehydrated and blocked with 3% BSA, in PBS.
Two βTRCP genes, βTRCP1 and βTRCP2, are present in the human genome on […], respectively. The coding sequence of these two genes shares over 90% identity and several full-length cDNAs of which are available as EST clones from Incyte (Palo Alto, Calif.) IMAGE #3491843 and 4237375. Also included were three other non specific EST clones as controls (Incyte, Palo alto, Calif.). […] These DNAs were used to produce the βTRCP protein and proteins encoded by the other DNAs as described in the Example 7. Proteins were transferred into wells of the peptide-coated and BSA-blocked IPR plates. […] The ECL signals were measured using an imaging plate reader (IPR).

A further assay concerns the target T3, BTK (Homo sapiens, UniProt Q06187).
T3 construct: specificity data for proteins generated from a library of eighteen full-length clones; host or cells: rabbit reticulocyte lysate, TnT coupled in vitro transcription/translation (cell-free)
Description: Kinase inhibitor profiling, pEY phosphorylation. The class given is biochemical. The protocol: (§2) Proteins were produced in an in vitro transcription and translation reaction. […] The unbound components of the reaction containing endogenous kinases were removed by three washes with TT-buffer (25 mM Tris-HCl buffer pH 7.4 and 0.004% Triton), two five minutes washings with high-salt wash buffer (25 mM Tris-HCl buffer pH 7.4, 0.004% Triton, 1M NaCl and 5 mM DTT) and 3 more washes with TT-buffer. To these immobilized and purified proteins a tyrosine kinase substrate, 5 nM pEY (poly Glu-Tyr, Sigma, MO), was added in a 50 μl reaction solution containing 5 mM MgCl2, 5 mM MnCl2, 100 μM ATP, 25 mM Tris-HCl buffer pH 7.4, 0.05 mM Na3VO4, 0.004% TritonX-100, 2 mM DTT and EDTA-free protease inhibitor (Roche Molecular Biochemicals). This mixture was incubated with shaking at room temperature overnight to allow phosphorylation of the pEY substrate by the immobilized kinases. Following this incubation, 45 μl of this mixture was transferred to a streptavidin or avidin-coated NPT IPR plate coated with biotinylated anti-phosphotyrosine antibody (PY20, Zymed labs, CA) followed by incubation for 30 minutes at room temperature to allow the binding of the phosphorylated pEY substrate to the PY20 coated NPT plate. Following this binding step, 50 ng Sulfo-TAG labeled anti-phosphotyrosine in buffer containing 25 mM Tris-HCl buffer pH 7.4, 5 mM MgCl2, 0.05 mM Na3VO4, 0.004% TritonX-100, 2 mM DTT and 0.05% IgG was added followed by incubation at room temperature for 30 mm. The unbound reagents were removed by one time washing with water, and the TAG label was detected in presence of 150 μl IPR assay buffer (0.4 mM Gly-Gly buffer, pH 7.8, 1 mM EDTA, 0.1 M TPA). The ECL signals were measured using an imaging plate reader.
(§3) The unbound components of the translation reaction (including any endogenous kinases) were removed by 3 washes with TT-buffer (25 mM Tris-HCl buffer pH 7.4 and 0.004% Triton), two five minutes washes with high-salt wash buffer (25 mM Tris-HCl buffer pH 7.4, 0.004% Triton, 1M NaCl and 5 mM DTT) and 3 washes with TT-buffer. […] The mixture was incubated at room temperature for 10 mm before starting the kinase reaction by adding 25 μl of 200 μM ATP in buffer A. This mixture was incubated with intermittent shaking at room temperature for 2 hours to overnight to allow (a) phosphorylation of the pEY substrate and (b) autophosphorylation of the immobilized kinases. Autophosphorylation and phosphorylation of the pEY was measured as described in Examples 7 and 8.
(§4) The ECL signal in control wells produced by tyrosine kinases was compared to the wells containing inhibitor compounds.

In another assay the target is T4, LCK (Homo sapiens, UniProt P06239).
T4 construct: specificity data for proteins generated from a library of eighteen full-length clones; host or cells: rabbit reticulocyte lysate, TnT coupled in vitro transcription/translation (cell-free)
Description: Kinase inhibitor profiling, pEY phosphorylation. It is filed as biochemical. On the procedure:
as §2, §3, §4

T3 sequence (Q06187 whole entry): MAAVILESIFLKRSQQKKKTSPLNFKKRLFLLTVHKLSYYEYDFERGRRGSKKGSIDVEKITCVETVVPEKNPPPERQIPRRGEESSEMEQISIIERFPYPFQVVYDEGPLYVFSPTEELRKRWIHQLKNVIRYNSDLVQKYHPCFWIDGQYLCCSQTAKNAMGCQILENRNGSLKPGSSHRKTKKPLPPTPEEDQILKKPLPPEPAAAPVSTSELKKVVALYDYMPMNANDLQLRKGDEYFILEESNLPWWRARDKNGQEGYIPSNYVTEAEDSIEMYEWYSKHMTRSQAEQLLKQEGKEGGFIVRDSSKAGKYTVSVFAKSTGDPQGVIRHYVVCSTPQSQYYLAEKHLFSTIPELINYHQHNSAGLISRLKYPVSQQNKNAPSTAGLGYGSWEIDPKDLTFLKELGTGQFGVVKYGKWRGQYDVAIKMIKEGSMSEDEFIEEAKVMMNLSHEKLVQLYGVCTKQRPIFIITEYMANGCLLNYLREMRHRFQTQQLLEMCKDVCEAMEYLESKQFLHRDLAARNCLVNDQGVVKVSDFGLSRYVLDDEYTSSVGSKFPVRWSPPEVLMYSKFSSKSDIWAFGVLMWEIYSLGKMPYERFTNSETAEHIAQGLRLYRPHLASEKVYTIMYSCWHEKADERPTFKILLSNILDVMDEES
T4 sequence (P06239 whole entry): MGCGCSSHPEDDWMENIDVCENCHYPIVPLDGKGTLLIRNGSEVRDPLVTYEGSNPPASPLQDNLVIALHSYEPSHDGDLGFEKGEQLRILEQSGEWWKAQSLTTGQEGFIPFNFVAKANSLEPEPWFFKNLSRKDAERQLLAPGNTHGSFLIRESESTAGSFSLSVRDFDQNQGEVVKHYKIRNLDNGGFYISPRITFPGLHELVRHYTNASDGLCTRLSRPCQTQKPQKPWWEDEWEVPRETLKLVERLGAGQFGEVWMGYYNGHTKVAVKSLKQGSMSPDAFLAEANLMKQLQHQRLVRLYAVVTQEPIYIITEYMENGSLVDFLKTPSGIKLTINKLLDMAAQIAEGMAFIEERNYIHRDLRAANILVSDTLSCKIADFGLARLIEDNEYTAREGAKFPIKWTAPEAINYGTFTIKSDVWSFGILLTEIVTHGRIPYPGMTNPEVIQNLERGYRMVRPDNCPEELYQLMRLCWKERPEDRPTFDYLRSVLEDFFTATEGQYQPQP
T2 sequence (P01106 with tags, fused parts or gaps limits assumed): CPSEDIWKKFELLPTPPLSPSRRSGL
T1 sequence (P25963 with tags, fused parts or gaps limits assumed): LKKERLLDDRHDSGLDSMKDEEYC

With “3491843: IMAGE clone protein: βTRCP1 [compound 3491843]”, in assay [1], the “Average ECL signal, IkBa peptide [SEQ ID No. 1]” value is recorded as 40879. Moreover, the “Average ECL signal, c-Myc peptide [SEQ ID No. 4]” value in assay [2] is 2118.

Consider “3872466: IMAGE clone protein: mCBP [compound 3872466]”, for which the “Average ECL signal, IkBa peptide [SEQ ID No. 1]” value in assay [1] stood at 371. The “Average ECL signal, c-Myc peptide [SEQ ID No. 4]” value in assay [2] is 351.

With `CC(C)(C)c1cc(C=C(C#N)C#N)cc(Br)c1O` [AG-1024], the “Inhibition specificity towards pEY phosphorylation at 10X IC50, BTK” value at BTK is listed as “H (high inhibition (“H”=less than 25% of the activity remaining))”.

Take `Cc1cc2ncc(-c3ccc(O)c(O)c3)nc2cc1C` [AG-1433]: the “Inhibition specificity towards pEY phosphorylation at 10X IC50, BTK” value on BTK is on record as “H (high inhibition (“H”=less than 25% of the activity remaining))”.

`COc1c(C=O)c(O)cc2c1C(=O)c1ccccc1C2=O` [Damnacanthal]: the “Inhibition specificity towards pEY phosphorylation at 10X IC50, BTK” value at BTK is “H (high inhibition (“H”=less than 25% of the activity remaining))”.

For `Cc1ccc(-c2nn(C(C)(C)C)c3ncnc(N)c23)cc1` [PP1], the “Inhibition specificity towards pEY phosphorylation at 10X IC50, LCK” value on LCK was “M (medium inhibition (“M”=between 25 to 50% of the activity remaining))”.

Turning to `COc1cc2ncnc(Nc3ccc(Cl)cc3F)c2cc1OC` [VEGFR inhibitor], the “Inhibition specificity towards pEY phosphorylation at 10X IC50, BTK” value at BTK was “M (medium inhibition (“M”=between 25 to 50% of the activity remaining))”. For the same molecule, the “Inhibition specificity towards pEY phosphorylation at 10X IC50, LCK” value at LCK is “H (high inhibition (“H”=less than 25% of the activity remaining))”.

For `COc1cc2ncnc(Nc3ccc(O)cc3)c2cc1OC` [WHI-P131], on BTK, the “Inhibition specificity towards pEY phosphorylation at 10X IC50, BTK” value is given as “M (medium inhibition (“M”=between 25 to 50% of the activity remaining))”. On LCK, the “Inhibition specificity towards pEY phosphorylation at 10X IC50, LCK” value is on record as “H (high inhibition (“H”=less than 25% of the activity remaining))”.
